According to patent publication US9249129B2, “Morpholino substituted urea derivatives as mTOR inhibitors” (CELLZOME LIMITED, priority 2010, dated 2016):

How the values were obtained:
Assay in all cases: kinobeads assay with mass spectrometry detection of kinases (kinase selectivity profile)
Type in all cases: binding
kinases (kinome) [1] = molecular target: T1, kinases (kinome) (Homo sapiens, UniProt P51451); settings: BLK (TK), IPI00554756
T1 construct: determined in kinobeads assays with mass spectrometry detection of kinases as described previously; endogenous in cells; host or cells: cell lysate
Description: (§1) The protein kinase complement of the human genome (the kinome) was described previously (Manning et al., 2002. Science 298(5600):1912-1934). Sequence accession numbers are defined by the International Protein Index (IPI) (Kersey et al., 2004. Proteomics 4(7):1985-1988).

kinases (kinome) [2] = molecular target: T2, kinases (kinome) (Homo sapiens, UniProt Q9UL54); settings: TAO2 (STE), IPI00006283
T2 construct: determined in kinobeads assays with mass spectrometry detection of kinases as described previously; endogenous in cells; host or cells: cell lysate
T2 sequence (Q9UL54 1-1235): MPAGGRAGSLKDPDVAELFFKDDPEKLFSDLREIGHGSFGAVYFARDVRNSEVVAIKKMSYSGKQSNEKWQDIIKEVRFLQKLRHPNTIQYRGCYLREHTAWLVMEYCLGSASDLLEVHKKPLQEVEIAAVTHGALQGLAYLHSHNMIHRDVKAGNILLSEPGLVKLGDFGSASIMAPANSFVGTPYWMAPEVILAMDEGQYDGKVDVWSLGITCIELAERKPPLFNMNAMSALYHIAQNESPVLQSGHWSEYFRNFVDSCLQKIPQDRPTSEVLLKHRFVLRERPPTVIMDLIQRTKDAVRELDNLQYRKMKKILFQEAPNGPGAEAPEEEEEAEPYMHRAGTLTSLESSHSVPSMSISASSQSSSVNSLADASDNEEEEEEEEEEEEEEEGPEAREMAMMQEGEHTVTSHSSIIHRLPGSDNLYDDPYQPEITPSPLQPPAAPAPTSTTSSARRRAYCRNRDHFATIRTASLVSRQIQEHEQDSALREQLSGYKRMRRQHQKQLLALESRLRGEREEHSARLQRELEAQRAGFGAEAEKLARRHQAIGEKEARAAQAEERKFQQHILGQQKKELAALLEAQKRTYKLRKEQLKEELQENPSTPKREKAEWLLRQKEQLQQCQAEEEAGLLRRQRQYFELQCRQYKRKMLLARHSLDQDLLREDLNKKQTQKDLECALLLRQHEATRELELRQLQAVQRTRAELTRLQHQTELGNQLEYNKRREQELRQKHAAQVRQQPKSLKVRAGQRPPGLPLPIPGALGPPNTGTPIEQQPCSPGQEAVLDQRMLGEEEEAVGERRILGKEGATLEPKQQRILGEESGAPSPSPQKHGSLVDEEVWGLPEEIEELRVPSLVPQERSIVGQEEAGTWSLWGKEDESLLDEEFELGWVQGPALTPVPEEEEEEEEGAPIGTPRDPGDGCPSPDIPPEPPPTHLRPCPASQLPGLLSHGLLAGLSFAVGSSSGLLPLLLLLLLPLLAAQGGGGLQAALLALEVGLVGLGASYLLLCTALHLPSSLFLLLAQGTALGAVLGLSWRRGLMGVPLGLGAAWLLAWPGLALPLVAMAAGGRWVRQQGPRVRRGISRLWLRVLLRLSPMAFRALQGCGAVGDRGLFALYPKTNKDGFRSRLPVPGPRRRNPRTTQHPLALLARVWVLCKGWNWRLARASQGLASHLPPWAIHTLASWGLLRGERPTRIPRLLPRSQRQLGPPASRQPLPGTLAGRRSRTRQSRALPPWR
Description: as §1

kinases (kinome) [3] = molecular target: T3, kinases (kinome) (Homo sapiens, UniProt Q8IU85); settings: CaMK1d (CAMK), IPI00170508
T3 construct: determined in kinobeads assays with mass spectrometry detection of kinases as described previously; endogenous in cells; host or cells: cell lysate
Description: as §1

kinases (kinome) [4] = molecular target: T4, kinases (kinome) (Homo sapiens, UniProt P23458); settings: JAK1 (TK), IPI00784013
T4 construct: determined in kinobeads assays with mass spectrometry detection of kinases as described previously; endogenous in cells; host or cells: cell lysate
Description: as §1

kinases (kinome) [5] = molecular target: T5, kinases (kinome) (Homo sapiens, UniProt P29323); settings: EphB2 (TK), IPI00021275
T5 construct: determined in kinobeads assays with mass spectrometry detection of kinases as described previously; endogenous in cells; host or cells: cell lysate
T5 sequence (P29323 19-1055): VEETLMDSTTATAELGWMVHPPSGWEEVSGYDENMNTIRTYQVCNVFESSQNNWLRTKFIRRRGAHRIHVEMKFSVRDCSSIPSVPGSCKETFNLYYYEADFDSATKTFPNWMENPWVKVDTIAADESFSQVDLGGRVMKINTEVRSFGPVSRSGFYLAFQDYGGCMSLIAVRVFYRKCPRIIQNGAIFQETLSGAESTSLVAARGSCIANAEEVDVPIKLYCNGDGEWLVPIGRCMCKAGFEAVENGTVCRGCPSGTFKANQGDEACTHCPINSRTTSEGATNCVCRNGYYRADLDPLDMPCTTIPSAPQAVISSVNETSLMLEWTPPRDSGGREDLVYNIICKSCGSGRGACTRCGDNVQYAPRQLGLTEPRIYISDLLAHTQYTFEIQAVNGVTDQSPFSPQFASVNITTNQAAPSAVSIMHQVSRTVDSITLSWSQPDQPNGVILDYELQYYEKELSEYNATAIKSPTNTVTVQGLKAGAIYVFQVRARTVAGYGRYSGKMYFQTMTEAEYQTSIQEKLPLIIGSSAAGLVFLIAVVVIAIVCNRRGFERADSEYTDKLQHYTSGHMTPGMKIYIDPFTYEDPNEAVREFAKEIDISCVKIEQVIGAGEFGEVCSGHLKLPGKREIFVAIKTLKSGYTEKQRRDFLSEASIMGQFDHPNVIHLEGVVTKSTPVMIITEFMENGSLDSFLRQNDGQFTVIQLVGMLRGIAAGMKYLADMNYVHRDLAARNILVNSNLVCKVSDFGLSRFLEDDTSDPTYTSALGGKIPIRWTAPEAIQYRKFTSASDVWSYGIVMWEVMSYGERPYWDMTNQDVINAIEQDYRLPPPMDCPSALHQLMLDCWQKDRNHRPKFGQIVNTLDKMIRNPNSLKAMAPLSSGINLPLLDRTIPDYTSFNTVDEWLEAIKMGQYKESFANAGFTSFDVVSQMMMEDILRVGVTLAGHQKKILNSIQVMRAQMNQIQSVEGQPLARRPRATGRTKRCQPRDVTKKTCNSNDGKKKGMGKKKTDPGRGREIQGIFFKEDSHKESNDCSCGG
Description: as §1

T4 sequence (P23458 whole entry): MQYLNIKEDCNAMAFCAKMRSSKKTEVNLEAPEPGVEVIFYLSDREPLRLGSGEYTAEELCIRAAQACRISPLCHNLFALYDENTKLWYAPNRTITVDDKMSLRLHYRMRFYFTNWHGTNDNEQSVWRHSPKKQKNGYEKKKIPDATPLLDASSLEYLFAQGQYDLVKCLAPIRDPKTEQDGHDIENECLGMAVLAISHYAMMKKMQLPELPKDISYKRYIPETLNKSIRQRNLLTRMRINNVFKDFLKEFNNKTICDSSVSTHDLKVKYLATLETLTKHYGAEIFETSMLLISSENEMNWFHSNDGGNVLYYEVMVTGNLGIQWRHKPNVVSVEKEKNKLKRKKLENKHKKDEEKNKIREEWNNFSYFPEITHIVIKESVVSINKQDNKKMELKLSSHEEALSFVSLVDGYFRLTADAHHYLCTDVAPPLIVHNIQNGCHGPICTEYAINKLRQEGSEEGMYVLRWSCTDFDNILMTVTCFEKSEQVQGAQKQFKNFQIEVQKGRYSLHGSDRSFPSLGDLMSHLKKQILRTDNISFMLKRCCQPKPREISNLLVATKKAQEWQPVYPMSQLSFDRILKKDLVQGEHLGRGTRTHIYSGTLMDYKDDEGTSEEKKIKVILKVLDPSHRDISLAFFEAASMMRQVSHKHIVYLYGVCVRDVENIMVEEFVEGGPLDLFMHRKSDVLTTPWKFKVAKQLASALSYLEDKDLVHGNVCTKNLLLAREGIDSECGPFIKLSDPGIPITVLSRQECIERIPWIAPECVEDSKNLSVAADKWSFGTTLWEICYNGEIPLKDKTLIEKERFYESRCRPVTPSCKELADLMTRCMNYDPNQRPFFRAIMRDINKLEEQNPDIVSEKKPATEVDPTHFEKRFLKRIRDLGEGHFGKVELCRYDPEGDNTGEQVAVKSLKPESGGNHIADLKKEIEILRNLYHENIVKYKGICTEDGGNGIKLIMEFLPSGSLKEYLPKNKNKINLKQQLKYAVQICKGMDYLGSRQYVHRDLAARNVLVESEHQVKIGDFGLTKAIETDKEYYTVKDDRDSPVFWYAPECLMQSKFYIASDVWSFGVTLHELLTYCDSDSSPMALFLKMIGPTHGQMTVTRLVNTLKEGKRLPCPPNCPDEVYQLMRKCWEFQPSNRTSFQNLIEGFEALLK
T3 sequence (Q8IU85 whole entry): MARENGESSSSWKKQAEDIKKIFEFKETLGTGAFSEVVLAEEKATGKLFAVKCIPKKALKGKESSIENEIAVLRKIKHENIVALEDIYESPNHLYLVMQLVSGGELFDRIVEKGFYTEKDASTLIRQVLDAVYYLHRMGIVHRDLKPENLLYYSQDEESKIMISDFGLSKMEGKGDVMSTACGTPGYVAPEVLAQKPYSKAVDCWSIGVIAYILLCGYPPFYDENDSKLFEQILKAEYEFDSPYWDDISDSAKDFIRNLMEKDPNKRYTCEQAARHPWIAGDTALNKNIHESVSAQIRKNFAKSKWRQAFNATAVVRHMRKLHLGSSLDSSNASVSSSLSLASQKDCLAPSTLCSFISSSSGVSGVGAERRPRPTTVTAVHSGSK
T1 sequence (P51451 whole entry): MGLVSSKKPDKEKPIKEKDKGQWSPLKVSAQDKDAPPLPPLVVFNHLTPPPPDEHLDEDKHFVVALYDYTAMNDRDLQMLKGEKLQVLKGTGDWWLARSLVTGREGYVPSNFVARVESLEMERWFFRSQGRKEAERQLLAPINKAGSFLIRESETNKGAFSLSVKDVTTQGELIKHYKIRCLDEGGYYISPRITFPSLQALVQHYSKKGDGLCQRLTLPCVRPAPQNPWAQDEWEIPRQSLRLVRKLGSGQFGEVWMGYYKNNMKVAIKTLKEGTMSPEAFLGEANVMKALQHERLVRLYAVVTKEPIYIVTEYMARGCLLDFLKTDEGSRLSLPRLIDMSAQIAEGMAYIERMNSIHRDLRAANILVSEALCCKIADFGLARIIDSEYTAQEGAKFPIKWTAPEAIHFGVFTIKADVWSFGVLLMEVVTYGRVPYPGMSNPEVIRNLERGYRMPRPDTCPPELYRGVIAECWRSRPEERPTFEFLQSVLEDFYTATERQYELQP

IC50 (kinases (kinome) [1])	IC50 (kinases (kinome) [2])	IC50 (kinases (kinome) [3])	IC50 (kinases (kinome) [4])	IC50 (kinases (kinome) [5])	SMILES
> 10 µM	> 10 µM	> 10 µM	> 10 µM	> 10 µM	C[C@H]1COCCN1c1cc(-c2ccccc2S(C)(=O)=O)nc(-c2ccc(NC(=O)NC3CC3)cc2)n1 [Example 6, (S)-1-cyclopropyl-3-(4-(4-(3-methylmorpholino)-6-(2-(methylsulfonyl)phenyl)pyrimidin-2-yl)phenyl)urea]
> 10 µM	> 10 µM	> 10 µM	> 10 µM	> 10 µM	CCNC(=O)Nc1ccc(-c2cc(-c3ccccc3C#N)nc(N3CCOC[C@@H]3C)n2)cc1 [Example 8, (S)-1-(4-(6-(2-cyanophenyl)-2-(3-methylmorpholino)pyrimidin-4-yl)phenyl)-3-ethylurea]
> 10 µM	> 10 µM	> 10 µM	> 10 µM	> 10 µM	C[C@H]1COCCN1c1nc(-c2ccc(NC(=O)NC3CC3)cc2)cc(-c2ccccc2S(C)(=O)=O)n1 [Example 4, (S)-1-cyclopropyl-3-(4-(2-(3-methylmorpholino)-6-(2-(methylsulfonyl)phenyl)pyrimidin-4-yl)phenyl)urea]
> 10 µM	> 10 µM	> 10 µM	> 10 µM	> 10 µM	C[C@H]1COCCN1c1nc(-c2ccc(NC(=O)NC3CC3)cc2)cc(-c2cccnc2S(C)(=O)=O)n1 [Example 46, (S)-1-cyclopropyl-3-(4-(2-(3-methylmorpholino)-6-(2-(methylsulfonyl)pyridin-3-yl)pyrimidin-4-yl)phenyl)urea]
> 10 µM	> 10 µM	> 10 µM	> 10 µM	> 10 µM	C[C@H]1COCCN1c1nc(-c2ccc(NC(=O)N[C@H]3CCC[C@@H]3O)cc2)cc(-c2cc(F)ccc2S(C)(=O)=O)n1 [Example 76, 1-(4-(6-(5-fluoro-2-(methylsulfonyl)phenyl)-2-((S)-3-methylmorpholino)pyrimidin-4-yl)phenyl)-3-((1S,2S)-2-hydroxycyclopentyl)urea]
> 10 µM	> 10 µM	> 10 µM	> 10 µM	> 10 µM	C[C@H]1COCCN1c1cc(-c2ccccn2)nc(-c2ccc(NC(=O)NCCO)cc2)n1 [Example 43, (S)-1-(2-hydroxyethyl)-3-(4-(4-(3-methylmorpholino)-6-(pyridin-2-yl)pyrimidin-2-yl)phenyl)urea]
> 10 µM	> 10 µM	> 10 µM	> 10 µM	> 10 µM	C[C@H]1COCCN1c1nc(-c2ccc(NC(=O)NC3CC3)cc2)cc(-c2cc(F)ccc2S(C)(=O)=O)n1 [Example 40, (S)-1-cyclopropyl-3-(4-(6-(5-fluoro-2-(methylsulfonyl)phenyl)-2-(3-methylmorpholino)pyrimidin-4-yl)phenyl)urea]
